Where a SMILES comes first, the peptide text is derived from it. Bridges are numbered along the chain shown (N, C = ends).
Experiments:
Nav1.9 = target: T1, Nav1.9 (Homo sapiens, UniProt Q9UI33); test: Whole-cell patch-clamp, fast inactivation of Nav1.9 in ND7/23 cells; type: cell-based; settings: 100 ms depolarization to −40 mV from −120 mV, Hill fit, mean ± SEM, n = 6, read-out: EC50 for inhibition of the fast inactivation of Nav1.9
T1 construct: expressed in transfected cells; host or cells: ND7/23
T1 sequence (Q9UI33 whole entry): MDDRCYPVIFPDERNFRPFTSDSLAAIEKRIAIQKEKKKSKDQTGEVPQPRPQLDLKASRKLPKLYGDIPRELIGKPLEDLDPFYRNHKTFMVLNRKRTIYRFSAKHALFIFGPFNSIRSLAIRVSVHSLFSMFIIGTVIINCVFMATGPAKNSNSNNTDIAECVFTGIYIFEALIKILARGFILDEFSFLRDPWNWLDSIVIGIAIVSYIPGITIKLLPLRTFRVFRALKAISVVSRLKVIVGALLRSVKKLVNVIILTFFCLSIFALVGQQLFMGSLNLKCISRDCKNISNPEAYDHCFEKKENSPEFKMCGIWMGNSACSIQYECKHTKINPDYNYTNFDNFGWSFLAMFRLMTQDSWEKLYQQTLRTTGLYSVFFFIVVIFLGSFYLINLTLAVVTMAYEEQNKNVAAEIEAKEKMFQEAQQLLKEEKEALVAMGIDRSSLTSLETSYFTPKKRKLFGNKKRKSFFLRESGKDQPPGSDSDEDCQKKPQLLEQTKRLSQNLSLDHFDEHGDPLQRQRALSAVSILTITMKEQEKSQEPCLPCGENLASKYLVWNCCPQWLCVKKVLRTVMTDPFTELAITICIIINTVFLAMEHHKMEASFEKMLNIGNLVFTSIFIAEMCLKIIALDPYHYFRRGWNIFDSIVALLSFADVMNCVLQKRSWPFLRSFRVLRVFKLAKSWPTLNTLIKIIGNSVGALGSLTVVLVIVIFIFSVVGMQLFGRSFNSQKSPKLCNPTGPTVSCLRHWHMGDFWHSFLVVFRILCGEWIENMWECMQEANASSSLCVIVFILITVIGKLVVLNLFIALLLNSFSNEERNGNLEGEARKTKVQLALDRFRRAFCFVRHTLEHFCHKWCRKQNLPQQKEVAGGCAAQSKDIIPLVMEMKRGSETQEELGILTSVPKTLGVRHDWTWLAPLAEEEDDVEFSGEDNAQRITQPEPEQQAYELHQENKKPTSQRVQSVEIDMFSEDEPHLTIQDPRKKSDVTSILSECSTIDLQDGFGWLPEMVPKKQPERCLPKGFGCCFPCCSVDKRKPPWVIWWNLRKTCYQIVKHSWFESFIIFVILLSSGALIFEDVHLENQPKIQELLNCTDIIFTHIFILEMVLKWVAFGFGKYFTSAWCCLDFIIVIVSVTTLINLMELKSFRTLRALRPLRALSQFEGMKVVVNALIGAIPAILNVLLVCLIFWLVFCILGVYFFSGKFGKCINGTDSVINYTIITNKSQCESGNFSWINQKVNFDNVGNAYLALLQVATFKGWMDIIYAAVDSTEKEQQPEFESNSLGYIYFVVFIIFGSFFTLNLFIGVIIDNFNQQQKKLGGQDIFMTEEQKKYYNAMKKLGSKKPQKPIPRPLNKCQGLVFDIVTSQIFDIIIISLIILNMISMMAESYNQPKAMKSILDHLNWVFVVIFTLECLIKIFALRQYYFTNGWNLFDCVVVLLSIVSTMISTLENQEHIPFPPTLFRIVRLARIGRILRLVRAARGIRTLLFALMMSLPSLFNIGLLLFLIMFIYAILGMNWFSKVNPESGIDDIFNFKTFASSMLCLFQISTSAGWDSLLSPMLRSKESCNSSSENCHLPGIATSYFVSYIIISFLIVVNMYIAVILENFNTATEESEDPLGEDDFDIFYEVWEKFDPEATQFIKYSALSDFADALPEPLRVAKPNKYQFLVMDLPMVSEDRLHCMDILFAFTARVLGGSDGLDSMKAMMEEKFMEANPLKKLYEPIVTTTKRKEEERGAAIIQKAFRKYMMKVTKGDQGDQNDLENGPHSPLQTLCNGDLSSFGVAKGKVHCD
Text: (§1) Rat Nav1.4, human Nav1.7 and rat Nav1.8 cDNA clones were kindly gift from Dr. Theodore Cummins (Stark Neurosciences Research Institute, Indiana University School of Medicine, Indianapolis, IN, United States) and were subcloned into the pCMV or pCDNA3.1-blank vectors. Human Nav1.9 was subcloned into the pEGFP-N1 vector. The C-terminal of hNav1.9 was linked to GFP to construct a fusion protein channel (hNav1.9-eGFP), which was as described in our previous studies ([Zhou et al., 2017]). Mutations were made using the site-directed mutation method or recombination-based cloning using GenBuilder™ Cloning Kit (GenScript, United States). Primers presented in Supplementary Tables 1–4. All mutations were verified by DNA sequencing.
(§2) ND7/23 and HEK293T cells were maintained at 37°C in a humidified 5% CO2 incubator in Dulbecco’s Modified Eagle’s Medium (DMEM) supplemented with 10% fetal bovine serum, 100 μg/ml streptomycin, 100 U/ml penicillin, and 2 mM L-glutamine. The cells were trypsinized, diluted with 1 ml of culture medium, and seeded at a 1:5 ratio in 35 mm Petri dishes for culture. When grown to 80–90% confluence, the ND7/23 cells were transfected with hNav1.9-GFP or hNav1.9-GFP mutants using the X-tremeGENE HP DNA Transfection Reagent (Roche, Basel, Switzerland) according to the manufacturer’s instructions. […]

Nav1.4 = target: T2, Nav1.4 (Rattus norvegicus, UniProt P15390); test: Whole-cell patch-clamp, Nav1.4 current in HEK293T cells; type: cell-based; settings: 50 ms steps to −10 mV from −90 mV, n = 4–6, read-out: IC50 for inhibition of Nav1.4 current
T2 construct: expressed in transfected cells; host or cells: HEK293T
Text: as §1, §2

Nav1.7 = target: T3, Nav1.7 (Homo sapiens, UniProt Q15858); test: Whole-cell patch-clamp, Nav1.7 current in HEK293T cells; type: cell-based; settings: 50 ms steps to −10 mV from −90 mV, n = 4–6, read-out: IC50 for inhibition of Nav1.7 current
T3 construct: expressed in transfected cells; host or cells: HEK293T
Text: as §1, §2

Nav1.9/1.8 DIV VSD = target: T4, Nav1.9/1.8 DIV VSD (Homo sapiens, UniProt Q9UI33, A1385V/A1393E/C1434F/D1399G/DEL1452-1455/H1400R/I1367A/I1373M/I1377C/I1397V/I1408V/I1415M/I1417M/I1446F/I1464V/INS1447AILK/K1392E/K1395T/L1401I/L1411G/L1414V/L1431V/L1438I/M1394K/M1445L/N1389E/P1391G/P1456Y/P1458S/R1481K/S1365R/S1374V/S1382T/S1387T/S1396K/T1444L/T1448S/V1404F/V1407A/V1435I/V1442G/V1465I/V1477I/W1403Q/Y1388D); test: Patch-clamp, chimera Nav1.9/1.8 DIV VSD; type: cell-based, human Nav1.9 / rat Nav1.8; settings: mean ± SEM, n = 4; I95/Ipeak; read-out: EC50 for inhibition of the fast inactivation
T4 construct: expressed in transfected cells; host or cells: ND7/23
T4 sequence (Q9UI33 with tags, fused parts or gaps with the stated changes): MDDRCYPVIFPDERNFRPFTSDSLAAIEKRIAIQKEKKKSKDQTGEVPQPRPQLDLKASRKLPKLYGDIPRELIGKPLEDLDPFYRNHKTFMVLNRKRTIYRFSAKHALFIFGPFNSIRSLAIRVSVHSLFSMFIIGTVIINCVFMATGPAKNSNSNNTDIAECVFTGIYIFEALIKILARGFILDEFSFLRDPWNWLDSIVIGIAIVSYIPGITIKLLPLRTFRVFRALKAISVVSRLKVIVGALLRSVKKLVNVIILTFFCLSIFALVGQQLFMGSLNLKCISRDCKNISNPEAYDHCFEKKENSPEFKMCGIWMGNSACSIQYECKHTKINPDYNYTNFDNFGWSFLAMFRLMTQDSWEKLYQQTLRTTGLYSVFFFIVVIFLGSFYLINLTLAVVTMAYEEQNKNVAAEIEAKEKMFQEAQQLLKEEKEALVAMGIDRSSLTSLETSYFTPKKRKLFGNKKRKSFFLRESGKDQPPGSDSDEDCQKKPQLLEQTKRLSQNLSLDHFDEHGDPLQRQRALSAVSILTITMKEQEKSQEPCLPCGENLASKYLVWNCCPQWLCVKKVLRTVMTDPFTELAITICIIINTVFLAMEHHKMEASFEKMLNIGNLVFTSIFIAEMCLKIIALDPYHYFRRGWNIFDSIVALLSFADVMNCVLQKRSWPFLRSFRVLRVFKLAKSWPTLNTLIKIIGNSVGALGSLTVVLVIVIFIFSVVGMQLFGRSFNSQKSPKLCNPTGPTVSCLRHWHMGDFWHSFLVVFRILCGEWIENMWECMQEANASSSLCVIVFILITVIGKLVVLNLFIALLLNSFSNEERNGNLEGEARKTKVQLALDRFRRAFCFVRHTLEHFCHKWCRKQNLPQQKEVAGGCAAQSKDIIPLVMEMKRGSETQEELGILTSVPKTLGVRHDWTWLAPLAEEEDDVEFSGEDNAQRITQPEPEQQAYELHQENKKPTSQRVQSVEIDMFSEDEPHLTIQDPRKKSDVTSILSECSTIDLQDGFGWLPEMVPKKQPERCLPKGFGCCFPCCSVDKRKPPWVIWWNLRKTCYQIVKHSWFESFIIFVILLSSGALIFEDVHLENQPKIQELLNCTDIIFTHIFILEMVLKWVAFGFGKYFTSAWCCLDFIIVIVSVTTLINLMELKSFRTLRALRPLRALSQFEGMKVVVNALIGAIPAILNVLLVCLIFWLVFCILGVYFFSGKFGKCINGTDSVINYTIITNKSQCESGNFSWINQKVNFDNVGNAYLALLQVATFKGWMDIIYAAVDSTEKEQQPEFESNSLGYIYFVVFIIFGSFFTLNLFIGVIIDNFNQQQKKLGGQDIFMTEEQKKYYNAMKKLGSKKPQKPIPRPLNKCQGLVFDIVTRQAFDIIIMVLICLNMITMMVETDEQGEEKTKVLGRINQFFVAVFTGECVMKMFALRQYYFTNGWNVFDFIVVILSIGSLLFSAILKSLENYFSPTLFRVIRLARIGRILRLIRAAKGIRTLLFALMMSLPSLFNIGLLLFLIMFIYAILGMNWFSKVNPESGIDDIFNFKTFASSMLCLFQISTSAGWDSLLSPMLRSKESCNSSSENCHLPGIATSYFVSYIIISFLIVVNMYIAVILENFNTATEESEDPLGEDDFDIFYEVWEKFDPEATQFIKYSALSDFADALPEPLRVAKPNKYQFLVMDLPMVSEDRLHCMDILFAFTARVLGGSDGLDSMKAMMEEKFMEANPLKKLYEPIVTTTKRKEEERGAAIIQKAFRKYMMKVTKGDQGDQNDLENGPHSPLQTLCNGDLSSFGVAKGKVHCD
Text: as §1, §2

[1] = system: voltage sensor of Nav channels; settings: ref Xiao et al., 2008, 2010, Zhou et al., 2020, Liu et al., 2013; cited from earlier work
Text: Gating modifier toxins typically affect channel gating by regulating the voltage-sensor of the channel. […] Ther ...

Kv2.1 channel = settings: ref Chen et al., 2012; Bemporad et al., 2006; cited from earlier work
Text: The venom of the spider Grammostola rosea contains several classes of peptide toxins that target ion channels (Figure 1A). […] Due to poor heterologous expression in mammal cells, pharmacological studies of the Nav1.9 channel have lagged. Previously, we succeeded in achieving functional ...

Nav1.7 channel = system: Nav1.7 channel; parameters: method as in 3 sources, one per row (each row's own in cited_ref): ref Murray et al., 2015 ||| ref Chen et al., 2020 ||| ref Xiao et al., 2010; settings: ProTx-II; ref Xiao et al., 2010; cited from earlier work

CC[C@H](C)[C@@H]1NC(=O)[C@H](CC(N)=O)NC(=O)[C@@H]2CCCN2C(=O)[C@H](Cc2c[nH]c3ccccc23)NC(=O)[C@H](CCCCN)NC(=O)[C@H](CCCNC(=N)N)NC(=O)[C@H](CCCCN)NC(=O)[C@@H]2CSSC[C@@H]3NC(=O)[C@H](CO)NC(=O)CNC(=O)[C@H](Cc4c[nH]c5ccccc45)NC(=O)[C@H](Cc4ccccc4)NC(=O)[C@H](CCC(N)=O)NC(=O)[C@H](CCCCN)NC(=O)[C@@H](NC(=O)[C@@H](N)CCC(=O)O)CSSC[C@H](NC(=O)[C@H](CSSC[C@@H](C(=O)N[C@@H](CC(C)C)C(=O)N[C@@H](Cc4c[nH]c5ccccc45)C(=O)N[C@@H](CC(=O)O)C(=O)NCC(=O)N[C@H](C(=O)N[C@@H](Cc4ccccc4)C(=O)N[C@@H](CO)C(=O)N[C@@H](CCCCN)C(=O)O)[C@@H](C)O)NC1=O)NC(=O)[C@H](CC(=O)O)NC(=O)[C@H](CO)NC(=O)[C@H](CC(=O)O)NC(=O)[C@H](CCCNC(=N)N)NC(=O)[C@H](CO)NC3=O)C(=O)N[C@@H](CCCCN)C(=O)N[C@@H](Cc1c[nH]cn1)C(=O)N[C@@H](CC(C)C)C(=O)NCC(=O)N2 [Gr4b, δ-theraphotoxin-Gr4b] (H-ECKQFWGSCSRDSDCCKHLGCKRKWPNICLWDGTFSK-OH; disulfide 2-16, 9-21, 15-29)
EC50 (Nav1.9): 0.025 ± 0.001 µM | IC50 (Nav1.4): 0.411 ± 0.184 µM | IC50 (Nav1.7): 0.027 ± 0.003 µM | EC50 (Nav1.9/1.8 DIV VSD): 1.5 ± 0.25 µM

HWTX-IV
reversal of toxin binding by depolarization [1]: reversed by prolonged strong depolarizations

HaTx1 (ECRYLFGGCKTTSDCCKHLGCKFRDKYCAWDFTFS; UniProt P56852 50-84, looked up)
inhibition of Kv2.1 currents (Kv2.1 channel): significantly inhibit the currents of the Kv2.1 channel

ProTx-II
inhibition of Nav1.7 current, voltage dependence (Nav1.7 channel): inhibits the current of the Nav1.7 channel with a significant voltage dependence

Source: article PMC8685421 (Frontiers in Pharmacology, 2021)
